Data on three compounds can be found in patent US8227207B2, “Bioactive peptides derived from the proteins of egg white by means of enzymatic hydrolysis” (Consejo Superior de Investigaciones Cientifcas, priority 2004, dated 2012).

Residues, ends and D or L forms follow the SMILES beside them.

Assay [1] concerns the target T1, angiotensin converting enzyme (ACE, EC 3.4.15.1) (Oryctolagus cuniculus, UniProt P12822).
T1 sequence (P12822 34-1310): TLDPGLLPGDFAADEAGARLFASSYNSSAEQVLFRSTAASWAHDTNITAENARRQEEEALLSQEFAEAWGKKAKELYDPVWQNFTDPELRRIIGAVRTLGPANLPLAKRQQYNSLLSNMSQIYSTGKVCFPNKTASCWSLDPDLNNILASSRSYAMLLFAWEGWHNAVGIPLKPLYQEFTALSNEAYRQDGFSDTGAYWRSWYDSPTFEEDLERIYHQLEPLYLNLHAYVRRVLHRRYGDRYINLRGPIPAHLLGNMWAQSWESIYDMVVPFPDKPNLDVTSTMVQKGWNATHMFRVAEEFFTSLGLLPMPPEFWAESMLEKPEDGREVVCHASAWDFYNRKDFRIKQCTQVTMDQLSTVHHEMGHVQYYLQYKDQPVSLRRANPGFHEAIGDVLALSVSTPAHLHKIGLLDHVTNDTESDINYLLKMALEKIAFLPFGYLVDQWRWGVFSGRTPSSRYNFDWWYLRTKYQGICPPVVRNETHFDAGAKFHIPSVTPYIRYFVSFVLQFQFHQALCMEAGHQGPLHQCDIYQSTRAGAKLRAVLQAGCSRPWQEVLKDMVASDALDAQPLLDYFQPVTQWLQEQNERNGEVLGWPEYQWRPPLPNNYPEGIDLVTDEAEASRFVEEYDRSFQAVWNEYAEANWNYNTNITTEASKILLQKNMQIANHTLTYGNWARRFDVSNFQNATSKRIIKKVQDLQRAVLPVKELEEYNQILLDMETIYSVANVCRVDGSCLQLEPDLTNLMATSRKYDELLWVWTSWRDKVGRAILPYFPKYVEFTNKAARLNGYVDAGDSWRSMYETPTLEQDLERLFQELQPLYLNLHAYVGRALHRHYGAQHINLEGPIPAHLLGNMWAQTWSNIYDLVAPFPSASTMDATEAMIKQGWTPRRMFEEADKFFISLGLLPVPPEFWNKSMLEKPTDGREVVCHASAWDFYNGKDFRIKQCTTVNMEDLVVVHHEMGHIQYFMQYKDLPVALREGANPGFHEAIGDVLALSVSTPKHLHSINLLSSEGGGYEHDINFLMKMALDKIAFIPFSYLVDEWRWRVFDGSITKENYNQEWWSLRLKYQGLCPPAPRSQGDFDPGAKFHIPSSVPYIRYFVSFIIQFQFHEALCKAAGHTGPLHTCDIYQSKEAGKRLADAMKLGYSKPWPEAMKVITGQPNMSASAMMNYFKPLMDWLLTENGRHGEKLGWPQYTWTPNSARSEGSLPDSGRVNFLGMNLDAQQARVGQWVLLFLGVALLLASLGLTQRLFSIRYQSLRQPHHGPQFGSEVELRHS
The assay is classed as biochemical. On the procedure:
(§1) The inhibitory activity of the angiotensin converting enzyme (ACE) is measured in vitro according to the method of D. W. Cushman and H. S. Cheung (Spectrophotometric assay and properties of the angiotensin-converting enzyme of rabbit lung. Biochemical Pharmacology, 1971, 20: 1637-1648), later on modified by Y. K. Kim, S. Yoon, D. Y. Yu, B. Lönnerdal and B. H. Cheung (Novel angiotensin-I-converting enzyme inhibitory peptides derived from recombinant human αs1-casein expressed in Escherichia coli, Journal of Dairy Research 1999, 66, 431-439).
(§2) The substrate hippuryl histidyl leucine (HHL, Sigma Chemicals Co., St. Louis, Mo., USA) is dissolved in a 0.1 M borate buffer with 0.3 M NaCl pH 8.3 to obtain a final concentration of 5 mM. To 100 μl of substrate are added 40 μl of each of the samples whose ACEI activity it is wished to determine. The ACE enzyme (EC 3.4.15.1, Sigma) is added, dissolved in 50% glycerol and diluted 1/10 in bidistilled water at the moment of conducting the assay. The reaction is carried out at 37° C. for 30 minutes in a water-bath. The enzyme is deactivated by lowering the pH with 150 μl of 1 N HCl. The hippuric acid formed is extracted with 1000 μl of ethyl acetate. Following vortex stirring for 20 seconds, it is centrifuged at 4000 rpm for 10 minutes at room temperature. 750 μl of the organic phase are taken and evaporated by heating at 95° C. for 10 minutes. The hippuric acid residue is redissolved in 800 μl of bidistilled water and, following stirring for 20 seconds, the absorbency at 228 nm is measured in a Dur-70 spectrophotometer from Beckman Instruments, Inc., Fullerton, USA.
(§3) In order to calculate the percentage of ACEI activity, the following formula is used
(§4) The blank is used for correcting the background absorbency. This contains substrate, enzyme and 20 μl of bidistilled water in place of the sample, and the reaction is halted at zero time. The control implies a hundred percent of the enzymatic action on the substrate in the absence of inhibitors and contains 20 μl of water in place of the sample and is incubated the same time as the sample.
(§5) The results are presented as the IC50 (μM or μg/ml) or concentration at which 50% of the enzyme's activity is inhibited. The concentration of protein is determined by means of the bicinchonomic acid (BCA) assay (Pierce, Rockford, Ill., USA) using bovine seroalbumin as reference.

Assay [2] addresses ACE (Homo sapiens, UniProt P12821). The settings on record: according to the cited authors; listed as ovokinin; cited from earlier work.
The test system of assay [3] is canine mesenteric arteries. The settings on record: listed as ovokinin; cited from earlier work.
Assay [4] has as its system spontaneously hypertensive rats (SHR). The settings on record: ovokinin oral 100 mg/kg, ovokinin (2-7) 10 mg/kg; cited from earlier work.
Assay [5] relates to angiotensin converting enzyme (ACE) (EC 3.4.15.1, Sigma). Kind of assay: In vitro inhibitory activity of the angiotensin converting enzyme (ACEI activity). The settings on record: result in words. The assay is classed as biochemical. On the procedure:
Measurement of the Inhibitory Activity of the Angiotensin Converting Enzyme (ACEI Activity)
as §1, §2, §3, §4, §5

The test system of assay [6] is spontaneously hypertensive rats (SHR). The settings on record: SHR, literature, cited from earlier work.
Assay [7] relates to canine mesenteric arteries. The settings on record: literature; cited from earlier work.
In assay [8] the test system is angiotensin converting enzyme (ACE). The settings on record: result in words, literature; cited from earlier work.

ACE, sequence (P12821 30-1306, species assumed): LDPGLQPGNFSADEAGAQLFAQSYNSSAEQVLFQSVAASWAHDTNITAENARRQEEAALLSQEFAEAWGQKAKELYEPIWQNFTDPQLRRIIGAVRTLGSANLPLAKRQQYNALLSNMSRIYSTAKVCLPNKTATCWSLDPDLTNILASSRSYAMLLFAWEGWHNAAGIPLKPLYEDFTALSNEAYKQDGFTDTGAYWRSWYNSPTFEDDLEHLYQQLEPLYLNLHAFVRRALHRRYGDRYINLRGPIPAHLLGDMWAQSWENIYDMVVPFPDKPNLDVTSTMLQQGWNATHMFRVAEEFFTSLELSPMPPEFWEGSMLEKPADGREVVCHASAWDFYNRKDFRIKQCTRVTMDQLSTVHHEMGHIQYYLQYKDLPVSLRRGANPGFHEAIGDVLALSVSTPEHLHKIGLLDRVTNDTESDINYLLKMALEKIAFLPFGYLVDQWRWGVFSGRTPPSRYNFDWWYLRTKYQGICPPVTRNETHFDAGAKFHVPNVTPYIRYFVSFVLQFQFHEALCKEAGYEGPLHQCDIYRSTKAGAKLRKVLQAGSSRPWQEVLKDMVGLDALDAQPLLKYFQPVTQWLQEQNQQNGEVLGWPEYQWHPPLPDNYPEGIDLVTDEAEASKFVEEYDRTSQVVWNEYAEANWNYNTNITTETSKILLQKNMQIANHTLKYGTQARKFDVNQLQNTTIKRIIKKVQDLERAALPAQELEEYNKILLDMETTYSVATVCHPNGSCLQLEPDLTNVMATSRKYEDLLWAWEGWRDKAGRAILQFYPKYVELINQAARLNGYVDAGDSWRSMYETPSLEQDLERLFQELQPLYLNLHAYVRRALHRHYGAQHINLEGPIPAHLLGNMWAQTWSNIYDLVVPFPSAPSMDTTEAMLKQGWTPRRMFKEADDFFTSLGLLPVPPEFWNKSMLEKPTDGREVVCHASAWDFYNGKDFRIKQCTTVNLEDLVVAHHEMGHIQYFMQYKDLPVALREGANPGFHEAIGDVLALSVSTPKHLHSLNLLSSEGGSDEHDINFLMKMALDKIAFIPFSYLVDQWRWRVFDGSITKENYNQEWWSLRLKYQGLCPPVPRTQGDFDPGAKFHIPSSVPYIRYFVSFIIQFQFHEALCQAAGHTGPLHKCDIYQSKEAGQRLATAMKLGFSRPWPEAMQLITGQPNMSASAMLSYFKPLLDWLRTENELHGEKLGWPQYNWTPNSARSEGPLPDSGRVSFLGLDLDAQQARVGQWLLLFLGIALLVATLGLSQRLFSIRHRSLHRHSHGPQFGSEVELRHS

For the compound `CC(C)C[C@H](NC(=O)[C@H](Cc1ccccc1)NC(=O)[C@@H]1CCCN1C(=O)[C@H](Cc1c[nH]cn1)NC(=O)[C@H](CC(=O)O)NC(=O)[C@H](C)NC(=O)[C@H](CCCNC(=N)N)NC(=O)[C@@H](N)Cc1ccccc1)C(=O)O` [SEQ. ID. N^o 5] (H-FRADHPFL-OH; N-terminus and C-terminus assumed), the “ACEI activity in vitro (in words)” value in assay [1] (peptides) was “potent ACEI activity”. In addition, the IC50 (usually the concentration that inhibits the measured activity by half) in assay [1] (read-out: ACEI activity IC50, synthetic peptides) was found to be 3.2 µM. Besides, the “ACEI activity (in words)” value in assay [2] is given as “did not possess ACEI activity”. The “vasorelaxing (vasodilatory) activity (in words)” value in assay [3] was “displayed vasorelaxing activity”. Further, in assay [4], the “anti-hypertensive / vasodilatory activity in SHR (in words)” value is “possessed anti-hypertensive activity”.

Take `CC(C)C[C@H](NC(=O)[C@H](Cc1ccccc1)NC(=O)[C@@H]1CCCN1C(=O)[C@H](Cc1cnc[nH]1)NC(=O)[C@H](CC(=O)O)NC(=O)[C@H](C)NC(=O)[C@H](CCCNC(=N)N)NC(=O)[C@@H](N)Cc1ccccc1)C(=O)O` [SEQ. ID. No 5] (H-FRADHPFL-OH): in assay [5], the “ACEI activity in vitro” value is “potent ACEI activity in vitro”. Besides, the anti-hypertensive activity entry in assay [6] (ovokinin orally 100 mg/kg) is recorded as “possessed anti-hypertensive activity when administered orally to spontaneously hypertensive rats (SHR) at doses of 100 mg/kg”. Besides, the vasorelaxing activity entry in assay [7] is listed as “displayed vasorelaxing activity in canine mesenteric arteries”.

Take `C[C@H](NC(=O)[C@@H](N)CCCNC(=N)N)C(=O)N[C@@H](CC(=O)O)C(=O)N[C@@H](Cc1cnc[nH]1)C(=O)N1CCC[C@H]1C(=O)N[C@@H](Cc1ccccc1)C(=O)O` [ovokinin (2-7), RADHPF] (H-RADHPF-OH): the “anti-hypertensive / vasodilatory activity in SHR (in words)” value in assay [4] was “exerted a potent vasodilatory action”. For the same compound, the ACEI activity entry in assay [8] is “neither ovokinin (2-7), nor its RPFHPF (SEQ. ID. NO: 10) or RPLKPW (SEQ. ID. NO: 11) derivatives possessed ACEI activity”. In assay [6] (doses of 10 mg/kg), the vasodilatory action entry is on record as “potent vasodilatory action in SHR”.
